Values of other authors as cited in patent US20070092575A1, “Compositions for administering RNAIII-inhibiting peptides” (priority 2005, published 2007).
Read-outs that look alike come from different tables or passages of the source. Ends that are not written are not given here.

Legend:
[1] = test system: S. aureus LS-1; details: Sepsis, mouse, strain LS-1, +RIP
[2] = test system: S. aureus Newbould 305, AE-1; details: Mastitis, cow, strain Newbould/AE-1, +RIP
[3] = test system: S. aureus strain Smith diffuse; details: Cellulitis/sepsis, mouse, +RIP
[4] = test system: MRSA, MRSE, VISA, VISE, GISA, GISE, MSSA, MSSE; details: Graft injection, rat, +RIP
[5] = test system: S. aureus 8325-4; details: Keratitis, rabbit, strain 8325-4, +RIP
[6] = test system: S. aureus MS; details: Osteomyelitis, rabbit, strain MS, +RIP
[7] = test system: S. aureus LS-1; details: Arthritis, mouse, strain LS-1, +RIP

YSPWTNF(-NH2) (YSPWTNF-NH2) [RIP, amide form of a synthetic RIP analogue]
% animals disease free [1]: 44% | % animals disease free [2]: 70-100% | % animals disease free [3]: Up to 100% | % animals disease free [4]: Up to 100% | % animals disease free [5]: 40% | % animals disease free [6]: 58% | % animals disease free [7]: 60%
